Tests used:
[1] = system: T-Rex 293 cell line SC cells having increased expression of progesterone receptor isoform B protein; assay: Cellular growth inhibition, T-Rex 293 SC cells with increased progesterone receptor isoform B expression (doxycycline), CellTiter-Glo; assay type: cell-based; conditions: progesterone receptor isoform B induced with 10 ng/mL doxycycline, 72 hours
Protocol: (§1) The following types of cells were prepared for this experiment: (i) a T-Rex 293 cell line having increased expression of progesterone receptor isoform B protein due to exposure to doxycycline and (ii) a T-Rex 293 cell line lacking increased expression of progesterone receptor isoform B protein. Ability of the test compounds to inhibit proliferation of the foregoing cell types was evaluated according to the procedures set forth below.
(§2) The doxycycline-inducible progesterone receptor isoform B protein expressing cell line was established using the following protocol: T-Rex 293 cells were purchased from Invitrogen (Cat #R71007) and transfected using Lipofectamine 2000 with the wild-type progesterone receptor B protein sequence cloned into the pcDNA4/TO vector. Transfected cells were selected using 400 μg/mL Zeocin (Invitrogen Cat #R25001). Following selection, single clones were raised and maintained in Dulbecco's Modified Eagle Medium (DMEM) supplemented with 10% w/w Tetracycline-free fetal bovine serum (FBS) and 250 μg/mL Zeocin. Clones were analyzed for expression of progesterone receptor isoform B protein in the presence and absence of 10 ng/ml doxycycline (Sigma Cat #D9891), and a single doxycycline-inducible clone (hereinafter “SC”) was selected for use in downstream assays.
(§3) The SC cells were seeded on poly-D-lysine coated, black clear-bottom 384-well plates at 2500/well, in 25 μL Phenol Red Free Dulbecco's Modified Eagle Medium (DMEM) supplemented with 10% w/w charcoal-dextran treated fetal bovine serum (FBS) and 1% w/w pen-strep, with or without 10 ng/mL doxycycline. Pen-Strep is a commercially available mixture of penicillin G and streptomycin, which is used in mammalian cell culture media to prevent bacterial contamination. Phenol Red Free Dulbecco's Modified Eagle Medium (DMEM) supplemented with 10% w/w charcoal-dextran treated fetal bovine serum (FBS) and 1% w/w pen-strep, with or without 10 ng/mL doxycycline is herein referred to as Treatment Medium. Following seeding of cells in the plates, the plates were spun at 300×g for 30 seconds, then equilibrated to room temperature for 30 minutes, and then deposited in a humidified tissue culture incubator maintained at 37° C. with 5% CO2.
(§4) At 24 hours after seeding of the cells, dilutions of test compound were prepared in DMSO and dissolved in Treatment Medium, to achieve a final DMSO concentration of 0.5% w/w, thereby providing the Test Compound Solution. A 25 μL aliquot of the Test Compound Solution was added to cells in the well plates. An equal volume of a solution containing DMSO and Treatment Medium was used as a negative control. Following treatment of cells with Test Compound Solution or said equal volume of a solution containing DMSO and Treatment Medium, the plates were spun at 300×g for 30 seconds, and then left in an incubator for 72 hours.
(§5) At the end of the treatment duration, cell viability was quantified with CellTiter-Glo 2.0 reagent (Promega Cat #G9243). For this purpose, plates were equilibrated to room temperature for 30 minutes, and then 25 μL of CellTiter-Glo 2.0 reagent was added to cells in the plate wells. Plates were then agitated on a shaker for two minutes at 500 rpm and subsequently incubated at room temperature for 10 minutes. Following incubation, the plates were spun at 3000×g for 30 seconds, then sealed with an optical adhesive cover, and luminescence readings were measured with an EnVision Plate Reader (Perkin Elmer).
(§6) Data was normalized using zero luminescence for baseline. A four-parameter non-linear regression curve fit was applied to dose-response data in GraphPad Prism data analysis software to determine the half-maximal growth inhibitory concentration (GI50) for each test compound.

[2] = system: T-Rex 293 cell line SC cells lacking increased expression of progesterone receptor isoform B protein; assay: Cellular growth inhibition, T-Rex 293 SC cells lacking increased progesterone receptor isoform B expression (no doxycycline), CellTiter-Glo; assay type: cell-based; conditions: T-Rex 293 SC cells not exposed to doxycycline, 72 hours
Protocol: as §1, §2, §3, §4, §5, §6

progesterone receptor = progesterone receptor (Homo sapiens, UniProt P06401); assay: PR Human Progesterone NHR Binding (Agonist Radioligand) Assay, [3H]progesterone, T47D cytosol; conditions: 0.5 nM [3H]progesterone, T47D cytosolic fractions, 1 hour at 4° C., legend words it as Kd
Protocol: Compounds were tested using the PR Human Progesterone NHR Binding (Agonist Radioligand) Assay, Cerep at Eurofins Discovery using a modified version of the protocol from Sarup et al. (Cancer Res 1988; 48:5071-5078). Briefly, cytosolic fractions of T47D cells were incubated with 0.5 nM [^3H]progesterone for 1 hour at 4° C. in the absence or presence of the test compound. Nonspecific binding was determined in the presence of 1 μM promegestone. Reactions were subjected to scintillation counting. Results are expressed as a percent inhibition of the control radioligand specific binding.

[3] = target: progesterone receptor ligand binding domain (LBD) (Homo sapiens (Human), UniProt P06401); assay: FP assay for binding affinity to progesterone receptor (PolarScreen Progesterone Receptor Competitor Assay); conditions: GST-tagged PR LBD, Fluormone tracer, fluorescence polarization, 2 hours at room temperature
Protocol: Compounds were tested using the PolarScreen™ Progesterone Receptor Competitor Assay Kit (Life Technologies Cat #A15905 or a15906), as per the manufacturer's instructions. Briefly, GST-tagged PR LBD, Fluormone tracer, and compound were mixed and incubated for 2 hours at room temperature in the dark. Following incubation, the plates were spun at 3000×g for 30 seconds, then sealed with an optical adhesive cover, and fluorescence polarization was measured using appropriate excitation and emission filters with an EnVision Plate Reader (Perkin Elmer). Compound concentration vs. mP value were plotted in Prism (GraphPad). A four-parameter non-linear regression curve fit was applied to dose-response data to determine the half-maximal inhibitory concentration (IC50) for each test compound.

androgen receptor = androgen receptor (Homo sapiens, UniProt P10275); assay: Assay for binding affinity to androgen receptor ([3H]methyltrienolone radioligand, cell cytosol); conditions: binding to the androgen receptor, 1 nM [3H]methyltrienolone, 24 hr at 4° C.
Protocol: Fractions of cell cytosol (106 cell/point) were incubated for 24 hr at 4° C. with 1 nM [^3H]methyltrienolone in the absence or presence of the test compound in a buffer containing 25 mM Hepes-Tris (pH 7.4), 1 mM EDTA, 10 mM Na2MoO4, 2 mM DTT, 5 µM triamcinolone acetonide, and 10% glycerol. Nonspecific binding was determined in the presence of 1 μM testosterone. Following incubation, the samples were filtered rapidly under vacuum through glass fiber filters (GF/B, Packard) presoaked with 0.3% PEI and rinsed several times with ice-cold 50 mM Tris-HCl using a 96-sample cell harvester (Unifilter, Packard). The filters were dried then counted for radioactivity in a scintillation counter (Topcount, Packard) using a scintillation cocktail (Microscint 0, Packard). The results are expressed as a percent inhibition of the control radioligand specific binding. The standard reference compound is testosterone, which is tested in each experiment at several concentrations to obtain a competition curve from which its IC50 is calculated.

progesterone receptor ligand binding domain (LBD), sequence (P06401 679-913): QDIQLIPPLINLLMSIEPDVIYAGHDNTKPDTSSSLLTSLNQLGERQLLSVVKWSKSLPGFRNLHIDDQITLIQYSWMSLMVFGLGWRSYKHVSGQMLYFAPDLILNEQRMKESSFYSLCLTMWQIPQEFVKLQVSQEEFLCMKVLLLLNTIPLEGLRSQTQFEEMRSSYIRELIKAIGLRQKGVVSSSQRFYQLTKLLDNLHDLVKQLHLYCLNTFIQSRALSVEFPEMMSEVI
progesterone receptor, sequence (P06401 whole entry, looked up): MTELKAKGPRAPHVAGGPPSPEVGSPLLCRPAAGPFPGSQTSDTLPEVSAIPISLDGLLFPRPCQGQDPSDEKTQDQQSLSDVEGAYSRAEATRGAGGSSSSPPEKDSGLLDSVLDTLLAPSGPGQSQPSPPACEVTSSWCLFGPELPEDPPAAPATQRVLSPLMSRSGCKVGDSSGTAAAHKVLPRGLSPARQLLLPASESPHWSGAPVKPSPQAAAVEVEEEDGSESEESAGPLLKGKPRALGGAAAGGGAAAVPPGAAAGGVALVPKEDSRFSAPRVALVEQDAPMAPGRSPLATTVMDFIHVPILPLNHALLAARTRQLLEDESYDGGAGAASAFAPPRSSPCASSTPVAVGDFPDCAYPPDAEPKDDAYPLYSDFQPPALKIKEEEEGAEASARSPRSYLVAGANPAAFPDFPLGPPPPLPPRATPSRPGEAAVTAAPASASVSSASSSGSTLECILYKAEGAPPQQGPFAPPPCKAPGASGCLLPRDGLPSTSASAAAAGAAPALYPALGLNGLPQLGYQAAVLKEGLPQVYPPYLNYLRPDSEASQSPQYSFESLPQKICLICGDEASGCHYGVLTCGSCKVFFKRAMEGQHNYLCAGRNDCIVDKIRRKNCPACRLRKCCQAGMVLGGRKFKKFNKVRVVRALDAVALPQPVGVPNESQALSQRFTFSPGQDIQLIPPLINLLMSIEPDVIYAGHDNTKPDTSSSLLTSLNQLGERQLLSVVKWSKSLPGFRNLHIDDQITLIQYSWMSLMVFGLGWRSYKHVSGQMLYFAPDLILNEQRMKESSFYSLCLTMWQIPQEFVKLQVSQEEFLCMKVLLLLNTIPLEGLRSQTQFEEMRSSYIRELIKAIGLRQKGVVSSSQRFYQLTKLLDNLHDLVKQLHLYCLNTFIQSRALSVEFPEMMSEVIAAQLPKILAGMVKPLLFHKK
androgen receptor, sequence (P10275 whole entry, looked up): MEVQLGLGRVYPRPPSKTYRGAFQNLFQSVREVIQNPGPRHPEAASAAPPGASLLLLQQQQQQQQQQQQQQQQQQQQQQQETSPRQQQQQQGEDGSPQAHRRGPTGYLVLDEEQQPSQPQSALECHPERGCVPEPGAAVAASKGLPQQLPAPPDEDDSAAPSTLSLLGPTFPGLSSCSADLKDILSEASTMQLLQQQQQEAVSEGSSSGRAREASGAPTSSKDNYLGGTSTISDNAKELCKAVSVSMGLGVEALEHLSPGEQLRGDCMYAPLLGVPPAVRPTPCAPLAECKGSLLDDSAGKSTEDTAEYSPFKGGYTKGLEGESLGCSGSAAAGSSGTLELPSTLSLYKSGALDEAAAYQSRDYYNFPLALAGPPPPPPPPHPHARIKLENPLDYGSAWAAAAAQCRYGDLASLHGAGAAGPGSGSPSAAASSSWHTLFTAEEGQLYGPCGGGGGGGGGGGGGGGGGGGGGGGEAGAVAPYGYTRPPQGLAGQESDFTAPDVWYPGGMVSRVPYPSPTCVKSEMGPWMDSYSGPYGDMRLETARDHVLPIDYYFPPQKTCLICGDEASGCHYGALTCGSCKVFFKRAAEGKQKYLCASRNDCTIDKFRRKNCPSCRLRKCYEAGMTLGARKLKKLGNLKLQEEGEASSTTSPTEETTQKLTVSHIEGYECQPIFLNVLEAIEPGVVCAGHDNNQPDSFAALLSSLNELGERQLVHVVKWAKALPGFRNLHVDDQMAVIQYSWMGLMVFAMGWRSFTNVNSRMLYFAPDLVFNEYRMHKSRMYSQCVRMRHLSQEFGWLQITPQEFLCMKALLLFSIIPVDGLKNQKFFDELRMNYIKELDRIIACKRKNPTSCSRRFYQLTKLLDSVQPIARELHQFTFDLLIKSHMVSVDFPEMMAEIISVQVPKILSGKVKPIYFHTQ

| SMILES | GI50 [1] [nM] | GI50 [2] [nM] | Ki (progesterone receptor) [nM] | IC50 [3] [nM] | Kd (androgen receptor) [nM] |
| --- | --- | --- | --- | --- | --- |
| CCS(=O)(=O)Nc1ccc(Oc2cccc(OCCOC3CCN(c4ccc(C(=O)N[C@H]5CC[C@H](Oc6ccc(C#N)c(Cl)c6)CC5)nn4)CC3)c2)c(-c2cn(C)c(=O)c3[nH]ccc23)c1 [I-1, N-[4-(3-chloro-4-cyano-phenoxy)cyclohexyl]-6-[4-[2-[3-[4-(ethylsulfonylamino)-2-(6-methyl-7-oxo-1H-pyrrolo[2,3-c]pyridin-4-yl)phenoxy]phenoxy]ethoxy]-1-piperidyl]pyridazine-3-carboxamide] | < 500 | < 500 | 500 to 2500 | 500 to 2500 | – |
| CCS(=O)(=O)c1ccc(Oc2cccc(CCCOC3CC4(C3)CN(c3ccc(C(=O)N[C@H]5CC[C@H](Oc6ccc(C#N)c(Cl)c6)CC5)nn3)C4)c2F)c(-c2cn(C)c(=O)c3[nH]ccc23)c1 [I-46] | < 500 | < 500 | – | – | – |
| CCS(=O)(=O)c1ccc(Oc2cccc(CCC3CCN(c4ccc(C(=O)N[C@H]5CC[C@H](Oc6ccc(C#N)c(Cl)c6)CC5)nn4)CC3)c2F)c(-c2cn(C)c(=O)c3[nH]ccc23)c1 [I-51] | – | – | – | 50 to 500 | – |
| CCS(=O)(=O)c1ccc(Oc2cccc(CCCC3CCN(c4ccc(C(=O)N[C@H]5CC[C@H](Oc6ccc(C#N)c(Cl)c6)CC5)nn4)CC3)c2F)c(-c2cn(C)c(=O)c3[nH]ccc23)c1 [I-52] | – | – | – | 50 to 500 | – |
| CCS(=O)(=O)c1ccc(Oc2cc(F)c(CCC3CCN(c4ccc(C(=O)N[C@H]5CC[C@H](Oc6ccc(C#N)c(Cl)c6)CC5)nn4)CC3)cc2F)c(-c2cn(C)c(=O)c3[nH]ccc23)c1 [I-59] | < 500 | 500 to 1500 | – | – | – |
| Cn1cc(-c2cc(C(C)(C)O)ccc2Oc2ccc(OC3CN(c4ccc(C(=O)N[C@H]5CC[C@H](Oc6ccc(C#N)c(Cl)c6)CC5)nn4)C3)cc2)c2cc[nH]c2c1=O [I-95, N-[4-(3-chloro-4-cyano-phenoxy)cyclohexyl]-6-[3-[4-[4-(1-hydroxy-1-methyl-ethyl)-2-(6-methyl-7-oxo-1H-pyrrolo[2,3-c]pyridin-4-yl)phenoxy]phenoxy]azetidin-1-yl]pyridazine-3-carboxamide] | < 500 | < 500 | – | – | – |
| Cn1cc(-c2cc(C(C)(C)O)ccc2Oc2ccc(CCC3CCN(c4ccc(C(=O)N[C@H]5CC[C@H](Oc6ccc(C#N)c(Cl)c6)CC5)nn4)CC3)cc2)c2cc[nH]c2c1=O [I-102] | < 500 | < 500 | – | – | 50 to 500 |
| Cn1cc(-c2cc(C(C)(C)O)ccc2Oc2c(F)cc(CCOC3CCN(c4ccc(C(=O)N[C@H]5CC[C@H](Oc6ccc(C#N)c(Cl)c6)CC5)nn4)CC3)cc2F)c2cc[nH]c2c1=O [I-109] | – | – | – | 50 to 500 | – |
| Cn1cc(-c2cc(C(C)(C)O)ccc2O[C@H]2C[C@H](N(C)CC3CCN(c4ccc(C(=O)N[C@H]5CC[C@H](Oc6ccc(C#N)c(Cl)c6)CC5)nn4)CC3)C2)c2cc[nH]c2c1=O [I-158, N-((1r,4r)-4-(3-chloro-4-cyanophenoxy)cyclohexyl)-6-(4-((((1r,3r)-3-(4-(2-hydroxypropan-2-yl)-2-(6-methyl-7-oxo-6,7-dihydro-1H-pyrrolo[2,3-c]pyridin-4-yl)phenoxy)cyclobutyl)(methyl)amino)methyl)piperidin-1-yl)pyridazine-3-carboxamide] | – | – | – | 500 to 2500 | – |
